Results: the supplement of paper PMC10627819

Tests used:
Assay in all cases: fitness (endpoint OD595 vs no drug) (fraction); higher = more growth
B. subtilis 168 = tested on: B. subtilis 168
Method in brief: (§1)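 With the first reading as background, OD595 was measured every 30 min for 14 h in 384-well plates kept at 37 °C and inoculated at OD595 0.01. TSB, LB Lennox or CY was the medium. Fitness is the optical density at the transition into stationary phase divided by the robust mean of no-drug control wells, with a cap of 1.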

S. aureus Newman = details: one replicate
Method in brief: as §1

S. pneumoniae D39V = tested on: S. pneumoniae D39V
Method in brief: as §1
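Note: OD595 on entry to stationary phase over no-drug wells; at most 1.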

O=C(O)[C@H]1/C(=C/CO)O[C@@H]2CC(=O)N21 [Clavulanic acid] + CN[C@@H]1[C@H](O[C@H]2[C@H](O[C@H]3[C@H](O)[C@@H](O)[C@H](N=C(N)N)[C@@H](O)[C@@H]3N=C(N)N)O[C@@H](C)[C@]2(O)C=O)O[C@@H](CO)[C@H](O)[C@H]1O [Streptomycin]
fitness
Details	partner 2 µg/mL	partner 4 µg/mL	partner 8 µg/mL
B. subtilis 168, first compound 1.5 µg/mL	0.963	–	0.0564
B. subtilis 168, first compound 3 µg/mL	0.93	–	0.0395
B. subtilis 168, first compound 6 µg/mL	0.804	–	0.0332
S. aureus Newman, first compound 0.03125 µg/mL	0.945	0.937	0.753
S. aureus Newman, first compound 0.0625 µg/mL	≥ 1	0.936	0.786
S. aureus Newman, first compound 0.125 µg/mL	0.991	0.938	0.786
S. pneumoniae D39V, first compound 0.5 µg/mL	0.955	0.929	0.901
S. pneumoniae D39V, first compound 1 µg/mL	0.899	0.886	0.855
S. pneumoniae D39V, first compound 2 µg/mL	0.757	0.78	0.768

S. pneumoniae D39V, partner 16 µg/mL, one replicate
Details	fitness
first compound 0.5 µg/mL	0.761
first compound 1 µg/mL	0.774
first compound 2 µg/mL	0.649

O=C(O)[C@H]1/C(=C/CO)O[C@@H]2CC(=O)N21 [Clavulanic acid] + CN[C@H](CC(C)C)C(=O)N[C@H]1C(=O)N[C@@H](CC(N)=O)C(=O)N[C@H]2C(=O)N[C@H]3C(=O)N[C@H](C(=O)N[C@H](C(=O)O)c4cc(O)cc(O)c4-c4cc3ccc4O)[C@H](O)c3ccc(c(Cl)c3)Oc3cc2cc(c3O[C@@H]2O[C@H](CO)[C@@H](O)[C@H](O)[C@H]2O[C@H]2C[C@](C)(N)[C@H](O)[C@H](C)O2)Oc2ccc(cc2Cl)[C@H]1O [Vancomycin]
fitness
Details	partner 0.03125 µg/mL	partner 0.0625 µg/mL	partner 0.125 µg/mL	partner 0.1875 µg/mL	partner 0.25 µg/mL	partner 0.375 µg/mL	partner 0.5 µg/mL	partner 0.75 µg/mL
S. aureus Newman, first compound 0.03125 µg/mL	–	–	–	0.974	–	0.975	–	0.974
S. aureus Newman, first compound 0.0625 µg/mL	–	–	–	≥ 1	–	≥ 1	–	≥ 1
S. aureus Newman, first compound 0.125 µg/mL	–	–	–	0.936	–	0.923	–	0.981
S. pneumoniae D39V, first compound 0.5 µg/mL	0.984	0.917	0.875	–	0.0377	–	0.0441	–
S. pneumoniae D39V, first compound 1 µg/mL	0.907	0.889	0.868	–	0.189	–	0.179	–
S. pneumoniae D39V, first compound 2 µg/mL	0.811	0.779	0.751	–	0.0611	–	0.078	–

O=C(O)[C@H]1/C(=C/CO)O[C@@H]2CC(=O)N21 [Clavulanic acid] + CO/N=C(\C(=O)N[C@@H]1C(=O)N2C(C(=O)O)=C(COC(C)=O)CS[C@H]12)c1csc(N)n1 [Cefotaxime]
fitness, B. subtilis 168, one replicate
Details	partner 0.00775 µg/mL	partner 0.0155 µg/mL	partner 0.031 µg/mL	partner 0.0625 µg/mL	partner 0.125 µg/mL	partner 0.25 µg/mL
first compound 1.5 µg/mL	0.759	0.65	0.525	0.486	0.286	0.225
first compound 3 µg/mL	0.722	0.593	0.489	0.455	0.322	0.15
first compound 6 µg/mL	0.637	0.467	0.384	0.391	0.258	0.185

Details	fitness
B. subtilis 168, first compound 1.5 µg/mL, partner 0.5 µg/mL	0.232
B. subtilis 168, first compound 1.5 µg/mL, partner 1 µg/mL	0.154
B. subtilis 168, first compound 1.5 µg/mL, partner 2 µg/mL	0.0721
B. subtilis 168, first compound 3 µg/mL, partner 0.5 µg/mL	0.218
B. subtilis 168, first compound 3 µg/mL, partner 1 µg/mL	0.118
B. subtilis 168, first compound 3 µg/mL, partner 2 µg/mL	0.0681
B. subtilis 168, first compound 6 µg/mL, partner 0.5 µg/mL	0.14
B. subtilis 168, first compound 6 µg/mL, partner 1 µg/mL	0.0836
B. subtilis 168, first compound 6 µg/mL, partner 2 µg/mL	0.0583
S. aureus Newman, first compound 0.03125 µg/mL, partner 0.078 µg/mL	0.994
S. aureus Newman, first compound 0.03125 µg/mL, partner 0.156 µg/mL	0.8
S. aureus Newman, first compound 0.03125 µg/mL, partner 0.312 µg/mL	0.807
S. aureus Newman, first compound 0.0625 µg/mL, partner 0.078 µg/mL	0.898
S. aureus Newman, first compound 0.0625 µg/mL, partner 0.156 µg/mL	0.741
S. aureus Newman, first compound 0.0625 µg/mL, partner 0.312 µg/mL	0.683
S. aureus Newman, first compound 0.125 µg/mL, partner 0.078 µg/mL	0.822
S. aureus Newman, first compound 0.125 µg/mL, partner 0.156 µg/mL	0.703
S. aureus Newman, first compound 0.125 µg/mL, partner 0.312 µg/mL	0.709
S. pneumoniae D39V, first compound 0.5 µg/mL, partner 0.0018 µg/mL	0.99
S. pneumoniae D39V, first compound 0.5 µg/mL, partner 0.0035 µg/mL	0.966
S. pneumoniae D39V, first compound 1 µg/mL, partner 0.0018 µg/mL	0.971
S. pneumoniae D39V, first compound 1 µg/mL, partner 0.0035 µg/mL	0.927
S. pneumoniae D39V, first compound 1 µg/mL, partner 0.007 µg/mL	0.789
S. pneumoniae D39V, first compound 2 µg/mL, partner 0.0018 µg/mL	0.844
S. pneumoniae D39V, first compound 2 µg/mL, partner 0.0035 µg/mL	0.824
S. pneumoniae D39V, first compound 2 µg/mL, partner 0.007 µg/mL	0.582

O=C(O)[C@H]1/C(=C/CO)O[C@@H]2CC(=O)N21 [Clavulanic acid] + CO/N=C(\C(=O)N[C@@H]1C(=O)N2C(C(=O)[O-])=C(C[N+]3(C)CCCC3)CS[C@H]12)c1csc(N)n1 [Cefepime]
fitness
Details	partner 0.007 µg/mL	partner 0.0078 µg/mL	partner 0.014 µg/mL	partner 0.0155 µg/mL	partner 0.028 µg/mL	partner 0.031 µg/mL	partner 0.125 µg/mL	partner 0.25 µg/mL	partner 0.5 µg/mL
S. aureus Newman, first compound 0.03125 µg/mL	–	–	–	–	–	–	0.965	0.943	0.946
S. aureus Newman, first compound 0.0625 µg/mL	–	–	–	–	–	–	0.94	0.914	0.871
S. aureus Newman, first compound 0.125 µg/mL	–	–	–	–	–	–	0.881	0.884	0.869
S. pneumoniae D39V, first compound 0.5 µg/mL	0.996	0.997	0.997	0.957	0.885	0.501	–	–	–
S. pneumoniae D39V, first compound 1 µg/mL	0.991	0.955	0.988	0.91	0.817	0.456	–	–	–
S. pneumoniae D39V, first compound 2 µg/mL	0.902	0.778	0.904	0.681	0.633	0.199	–	–	–

O=C(O)[C@H]1/C(=C/CO)O[C@@H]2CC(=O)N21 [Clavulanic acid] + CO[C@@]12[C@H](COC(N)=O)C3=C(C(=O)C(C)=C(N)C3=O)N1C[C@@H]1N[C@@H]12 [Mitomycin C]
fitness
Details	partner 0.001075 µg/mL	partner 0.00215 µg/mL	partner 0.004 µg/mL	partner 0.0043 µg/mL	partner 0.008 µg/mL	partner 0.0156 µg/mL	partner 0.0312 µg/mL	partner 0.0625 µg/mL
S. aureus Newman, first compound 0.03125 µg/mL	–	–	–	–	–	0.757	0.549	0.48
S. aureus Newman, first compound 0.0625 µg/mL	–	–	–	–	–	0.748	0.568	0.495
S. aureus Newman, first compound 0.125 µg/mL	–	–	–	–	–	0.721	0.601	0.51
S. pneumoniae D39V, first compound 0.5 µg/mL	0.951	0.885	0.642	0.772	0.324	–	–	–
S. pneumoniae D39V, first compound 1 µg/mL	0.896	0.873	0.586	0.766	0.369	–	–	–
S. pneumoniae D39V, first compound 2 µg/mL	0.838	0.791	0.385	0.696	0.201	–	–	–

O=C(O)[C@H]1/C(=C/CO)O[C@@H]2CC(=O)N21 [Clavulanic acid] + COc1c(N2C[C@@H]3CCCN[C@@H]3C2)c(F)cc2c(=O)c(C(=O)O)cn(C3CC3)c12 [Moxifloxacin]
Details	fitness
B. subtilis 168, first compound 1.5 µg/mL, partner 0.0312 µg/mL	0.0422
B. subtilis 168, first compound 1.5 µg/mL, partner 0.0625 µg/mL	0.0379
B. subtilis 168, first compound 1.5 µg/mL, partner 0.125 µg/mL	0.0596
B. subtilis 168, first compound 1.5 µg/mL, partner 2 µg/mL	0.0304
B. subtilis 168, first compound 1.5 µg/mL, partner 4 µg/mL	0.0307
B. subtilis 168, first compound 1.5 µg/mL, partner 8 µg/mL	0.0071
B. subtilis 168, first compound 3 µg/mL, partner 0.0312 µg/mL	0.0399
B. subtilis 168, first compound 3 µg/mL, partner 0.0625 µg/mL	0.0399
B. subtilis 168, first compound 3 µg/mL, partner 0.125 µg/mL	0.0536
B. subtilis 168, first compound 3 µg/mL, partner 2 µg/mL	0.0289
B. subtilis 168, first compound 3 µg/mL, partner 4 µg/mL	0.0394
B. subtilis 168, first compound 3 µg/mL, partner 8 µg/mL	0.0171
B. subtilis 168, first compound 6 µg/mL, partner 0.0312 µg/mL	0.0317
B. subtilis 168, first compound 6 µg/mL, partner 0.0625 µg/mL	0.0196
B. subtilis 168, first compound 6 µg/mL, partner 0.125 µg/mL	0.0562
B. subtilis 168, first compound 6 µg/mL, partner 2 µg/mL	0.0285
B. subtilis 168, first compound 6 µg/mL, partner 4 µg/mL	0.0252
B. subtilis 168, first compound 6 µg/mL, partner 8 µg/mL	0.0156
S. aureus Newman, first compound 0.03125 µg/mL, partner 0.0075 µg/mL	0.823
S. aureus Newman, first compound 0.03125 µg/mL, partner 0.015 µg/mL	0.742
S. aureus Newman, first compound 0.03125 µg/mL, partner 0.03 µg/mL	0.393
S. aureus Newman, first compound 0.0625 µg/mL, partner 0.0075 µg/mL	0.786
S. aureus Newman, first compound 0.0625 µg/mL, partner 0.015 µg/mL	0.693
S. aureus Newman, first compound 0.0625 µg/mL, partner 0.03 µg/mL	0.312
S. aureus Newman, first compound 0.125 µg/mL, partner 0.0075 µg/mL	0.779
S. aureus Newman, first compound 0.125 µg/mL, partner 0.015 µg/mL	0.699
S. aureus Newman, first compound 0.125 µg/mL, partner 0.03 µg/mL	0.417
S. pneumoniae D39V, first compound 0.5 µg/mL, partner 0.005 µg/mL	0.952
S. pneumoniae D39V, first compound 0.5 µg/mL, partner 0.01 µg/mL	0.982
S. pneumoniae D39V, first compound 0.5 µg/mL, partner 0.02 µg/mL	0.896
S. pneumoniae D39V, first compound 0.5 µg/mL, partner 0.0312 µg/mL	0.0616
S. pneumoniae D39V, first compound 0.5 µg/mL, partner 0.0625 µg/mL	0.0525
S. pneumoniae D39V, first compound 0.5 µg/mL, partner 0.125 µg/mL	0.0269
S. pneumoniae D39V, first compound 1 µg/mL, partner 0.005 µg/mL	0.94
S. pneumoniae D39V, first compound 1 µg/mL, partner 0.01 µg/mL	0.964
S. pneumoniae D39V, first compound 1 µg/mL, partner 0.02 µg/mL	0.908
S. pneumoniae D39V, first compound 1 µg/mL, partner 0.0312 µg/mL	0.198
S. pneumoniae D39V, first compound 1 µg/mL, partner 0.0625 µg/mL	0.173
S. pneumoniae D39V, first compound 1 µg/mL, partner 0.125 µg/mL	0.189
S. pneumoniae D39V, first compound 2 µg/mL, partner 0.005 µg/mL	0.891
S. pneumoniae D39V, first compound 2 µg/mL, partner 0.01 µg/mL	0.939
S. pneumoniae D39V, first compound 2 µg/mL, partner 0.02 µg/mL	0.844
S. pneumoniae D39V, first compound 2 µg/mL, partner 0.0312 µg/mL	0.0371
S. pneumoniae D39V, first compound 2 µg/mL, partner 0.0625 µg/mL	0.0368
S. pneumoniae D39V, first compound 2 µg/mL, partner 0.125 µg/mL	0.0371
